Laboratory results as given in patent US12565501B2, “Muscarinic acetylcholine M1 receptor antagonists” (Contineum Therapeutics, Inc., priority 2019, dated 2026).
pIC50: −log10 of the molar value.

Biological target: T1, human M1 receptor (Homo sapiens, UniProt P11229)
T1 sequence (P11229 1-460): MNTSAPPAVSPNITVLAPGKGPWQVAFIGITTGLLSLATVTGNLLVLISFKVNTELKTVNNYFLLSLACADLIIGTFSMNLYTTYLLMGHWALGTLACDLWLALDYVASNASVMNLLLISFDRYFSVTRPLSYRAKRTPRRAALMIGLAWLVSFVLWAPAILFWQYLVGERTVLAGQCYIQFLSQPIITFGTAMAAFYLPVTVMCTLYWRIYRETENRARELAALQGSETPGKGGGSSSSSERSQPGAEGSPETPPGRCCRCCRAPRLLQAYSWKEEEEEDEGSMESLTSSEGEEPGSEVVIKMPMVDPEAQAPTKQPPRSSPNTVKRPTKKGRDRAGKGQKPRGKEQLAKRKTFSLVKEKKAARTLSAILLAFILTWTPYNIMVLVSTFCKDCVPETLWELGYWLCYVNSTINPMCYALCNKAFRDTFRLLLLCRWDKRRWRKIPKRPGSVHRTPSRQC
Assay: In vitro functional assay of muscarinic acetylcholine receptor activity (aequorin calcium flux, reversal of EC80 acetylcholine response)
Type: cell-based
Details: CHO-K1 cells stably expressing human M1 receptor with aequorin; acetylcholine at EC80; calcium flux (luminescence); read-out: M1 IC50
Protocol: CHO-K1 cells stably expressing human M1 receptor with aequorin (Perkin Elmer) were grown in F12 media (Gibco) containing 10% FBS (ATCC), 0.4 mg/mL geneticin (Sigma-Aldrich) and 0.25 mg/mL Zeocin (Invitrogen). Cells were grown as per the manufacturer's protocol. For compound testing, cells were grown to confluency and detached gently with Accutase (Sigma-Aldrich) followed by centrifugation for 5 min at 150× g. Cells were then re-suspended in assay buffer (i.e. DMEM/F-12 HEPES without phenol red (Invitrogen) with 0.1% BSA (Sigma-Aldrich)) at a density of 5×10^6 cells/ml. Under sterile conditions, 5 μM coelenterazine (Invitrogen) was added to the cells, mixed, then incubated at room temperature protected from light, with gentle agitation, for 4 h.
Primary compound plates were prepared in 100% DMSO in opaque 96-well plates (VWR) and serially diluted in half log increments. Secondary compound plates were prepared at 3× concentration in assay buffer. Compounds were added to white, clear bottom tissue culture treated 96-well plates (Fisher Scientific). Coelenterazine-loaded cells were then added at 5×10^5 cells/well.
Compounds and cells were incubated at room temperature for 30 min in the dark. Acetylcholine at the EC80 concentration was added and calcium flux measured using a FlexStation 3 (Molecular Devices). Sigmoidal dose-response curves were generated by measuring luminescence over 40 sec and calculating the area under the curve. Dose response curves and IC50 values were generated using Prism (GraphPad). Compounds were tested at a final concentration range of 100 μM to […] in 0.1% DMSO.

Row | Molecule | pIC50
1 | 6-(3-(2-(1-(1-methyl-6-oxo-1,6-dihydropyridin-3-yl) cyclopropoxy)acetyl)-3,8-diazabicyclo[3.2.1]octan- 8-yl)nicotinonitrile [Example 301] | 6.00 to 7.00
2 | N#Cc1ccc(N2[C@@H]3CC[C@H]2CN(C(=O)CCN2CCC2c2ccc(F)cc2)C3)nc1 (mixture of isomers) [Example 23, 6-(3-(3-(2-(4-fluorophenyl)azetidin-1-yl)propanoyl)-3,8-diazabicyclo[3.2.1]octan-8-yl)nicotinonitrile] | 5.00 to 6.00
3 | COc1cccc2c1CCN(CCC(=O)N1C[C@H]3CC[C@@H](C1)N3c1ccc(C#N)cn1)C2C (mixture of isomers) [Example 38, 6-(3-(3-(5-methoxy-1-methyl-3,4-dihydroisoquinolin-2(1H)-yl)propanoyl)-3,8-diazabicyclo[3.2.1]octan-8-yl)nicotinonitrile] | 5.00 to 6.00
4 | CC(NCCC(=O)N1CC2CCC(C1)N2c1ccc(C#N)cn1)c1cccc2ncccc12 (racemic) [Example 48, 6-(3-(3-((1-(quinolin-5-yl)ethyl)amino)propanoyl)-3,8-diazabicyclo[3.2.1]octan-8-yl)nicotinonitrile] | > 8.00
5 | CC(C)(O)C(NCCC(=O)N1C[C@H]2CC[C@@H](C1)N2c1ccc(C#N)cn1)c1ccccc1 (mixture of isomers) [Example 49, 6-(3-(3-((2-hydroxy-2-methyl-1-phenylpropyl)amino)propanoyl)-3,8-diazabicyclo[3.2.1]octan-8-yl)nicotinonitrile] | 5.00 to 6.00
6 | COc1cnc2cccc(C(C)NCCC(=O)N3C[C@H]4CC[C@@H](C3)N4c3ccc(C#N)cn3)c2c1 (mixture of isomers) [Example 50, 6-(3-(3-((1-(3-methoxyquinolin-5-yl)ethyl)amino)propanoyl)-3,8-diazabicyclo[3.2.1]octan-8-yl)nicotinonitrile] | > 8.00
7 | CC(NCCC(=O)N1C[C@H]2CC[C@@H](C1)N2c1ccc(C#N)cn1)c1cccc2ncsc12 (mixture of isomers) [Example 51, 6-(3-(3-((1-(benzo[d]thiazol-7-yl)ethyl)amino)propanoyl)-3,8-diazabicyclo[3.2.1]octan-8-yl)nicotinonitrile] | 7.00 to 8.00
8 | N#Cc1ccc(N2[C@@H]3CC[C@H]2CN(C(=O)CCNC(c2cccc4ncsc24)C(F)(F)F)C3)nc1 (mixture of isomers) [Example 52, 6-(3-(3-((1-(benzo[d]thiazol-7-yl)-2,2,2-trifluoroethyl)amino)propanoyl)-3,8-diazabicyclo[3.2.1]octan-8-yl)nicotinonitrile] | > 8.00
9 | CC(NCCC(=O)N1C[C@H]2CC[C@@H](C1)N2c1ccc(C#N)cn1)c1c(F)ccc2nccn12 (mixture of isomers) [Example 53, 6-(3-(3-((1-(6-fluoroimidazo[1,2-a]pyridin-5-yl)ethyl)amino)propanoyl)-3,8-diazabicyclo[3.2.1]octan-8-yl)nicotinonitrile] | 7.00 to 8.00
10 | CC(NCC(=O)N1CC2CCC(C1)N2c1ccc(C#N)cn1)c1cccc2ncnn12 (racemic) [Example 54, 6-(3-((1-([1,2,4]triazolo[1,5-a]pyridin-5-yl)ethyl)glycyl)-3,8-diazabicyclo[3.2.1]octan-8-yl)nicotinonitrile] | 7.00 to 8.00
11 | COc1c(F)cccc1C(C)NCC(=O)N1CC2CCC(C1)N2c1ccc(C#N)cn1 (racemic) [Example 55, 6-(3-((1-(3-fluoro-2-methoxyphenyl)ethyl)glycyl)-3,8-diazabicyclo[3.2.1]octan-8-yl)nicotinonitrile] | > 8.00
12 | COc1cc(F)ccc1C(C)NCC(=O)N1CC2CCC(C1)N2c1ccc(C#N)cn1 (racemic) [Example 56, 6-(3-((1-(4-fluoro-2-methoxyphenyl)ethyl)glycyl)-3,8-diazabicyclo[3.2.1]octan-8-yl)nicotinonitrile] | > 8.00
13 | COc1cc(C(C)NCC(=O)N2CC3CCC(C2)N3c2ccc(C#N)cn2)ccc1F (racemic) [Example 57, 6-(3-((1-(4-fluoro-3-methoxyphenyl)ethyl)glycyl)-3,8-diazabicyclo[3.2.1]octan-8-yl)nicotinonitrile] | > 8.00
14 | N#Cc1ccc(N2C3CCC2CN(C(=O)CNC2CCc4ccccc42)C3)nc1 (racemic) [Example 89, 6-(3-((2,3-dihydro-1H-inden-1-yl)glycyl)-3,8-diazabicyclo[3.2.1]octan-8-yl)nicotinonitrile] | 5.00 to 6.00
15 | COc1ccc2c(c1)C(NCC(=O)N1CC3CCC(C1)N3c1ccc(C#N)cn1)CC2 (racemic) [Example 90, 6-(3-((6-methoxy-2,3-dihydro-1H-inden-1-yl)glycyl)-3,8-diazabicyclo[3.2.1]octan-8-yl)nicotinonitrile] | 6.00 to 7.00
16 | N#Cc1ccc(N2C3CCC2CN(C(=O)CNC2CCc4cc(F)cc(F)c42)C3)nc1 (racemic) [Example 91, 6-(3-((5,7-difluoro-2,3-dihydro-1H-inden-1 yl)glycyl)-3,8-diazabicyclo[3.2.1]octan-8-yl)nicotinonitrile] | 6.00 to 7.00
17 | N#Cc1ccc(N2C3CCC2CN(C(=O)CN2CCC2c2ccc(F)cc2)C3)nc1 (racemic) [Example 104] | < 6.00
18 | CC1c2ccccc2CCN1CC(=O)N1CC2CCC(C1)N2c1ccc(C#N)cn1 (racemic) [Example 106, 6-(3-(2-(1-methyl-3,4-dihydroisoquinolin-2(1H)-yl)acetyl)-3,8-diazabicyclo[3.2.1]octan-8-yl)nicotinonitrile] | 6.00 to 7.00
19 | COc1ccc2c(c1)C(C)N(CC(=O)N1CC3CCC(C1)N3c1ccc(C#N)cn1)CC2 (racemic) [Example 120, 6-(3-(2-(7-methoxy-1-methyl-3,4-dihydroisoquinolin-2(1H)-yl)acetyl)-3,8-diazabicyclo[3.2.1]octan-8-yl)nicotinonitrile] | 5.00 to 6.00
20 | COc1cccc2c1CCN(CC(=O)N1CC3CCC(C1)N3c1ccc(C#N)cn1)C2C (racemic) [Example 121, 6-(3-(2-(5-methoxy-1-methyl-3,4-dihydroisoquinolin-2(1H)-yl)acetyl)-3,8-diazabicyclo[3.2.1]octan-8-yl)nicotinonitrile] | 6.00 to 7.00
21 | COc1cncc(C(NCC(=O)N2CC3CCC(C2)N3c2ccc(C#N)cn2)C(F)F)c1 (racemic) [Example 127, 6-(3-((2,2-difluoro-1-(5-methoxypyridin-3-yl)ethyl)glycyl)-3,8-diazabicyclo[3.2.1]octan-8-yl)nicotinonitrile] | > 8.00
22 | N#Cc1ccc(N2C3CCC2CN(C(=O)CNC(c2ccc(F)cc2F)C(F)F)C3)nc1 (racemic) [Example 128, 6-(3-((1-(2.4-difluorophenyl)-2,2-difluoroethyl)glycyl)-3,8-diazabicyclo[3.2.1]octan-8-yl)nicotinonitrile] | 7.00 to 8.00
23 | N#Cc1ccc(N2C3CCC2CN(C(=O)CCNC(c2ccc(F)c(F)c2)C(F)F)C3)nc1 (racemic) [Example 129, 6-(3-(3-((1-(3,4-difluorophenyl)-2,2-difluoroethyl)amino)propanoyl)-3,8-diazabicyclo[3.2.1]octan-8-yl)nicotinonitrile] | > 8.00
24 | CC(SCC(=O)N1CC2CCC(C1)N2c1ccc(C#N)cn1)c1ccccc1 (racemic) [Example 132, 6-(3-(2-((1-phenylethyl)thio)acetyl)-3,8-diazabicyclo[3.2.1]octan-8-yl)nicotinonitrile] | > 8.00
25 | CC(SCC(=O)N1CC2CCC(C1)N2c1ccc(C#N)cn1)c1ccc(F)cc1 (racemic) [Example 133, 6-(3-(2-((1-(4-fluorophenyl)ethyl)thio)acetyl)-3,8-diazabicyclo[3.2.1]octan-8-yl)nicotinonitrile] | 7.00 to 8.00
